Data reported in patent US20170304530A1, “INFUSION PREPARATION” (priority 2010, published 2017).
Counter-ions that a name gives are not always drawn.

Assay: Remaining amount of each vitamin after 6 months storage at room temperature, measured by HPLC
Type: physicochemical
Details: vitamin in Example 3 infusion preparation before mixing, stored at room temperature for 6 months
Protocol: The infusion preparation (before mixing the first-chamber. infusion and the second-chamber infusion) was stored at room temperature for 6 months. Thereafter, the amount of each vitamin component contained in the first-chamber infusion or the second-chamber infusion was measured using HPLC. […] As is clear from the results, each of the vitamin components can be stably present in the infusion preparation even after 6 months storage.

Compound | Remaining rate after 6 months storage (%)
Cc1cc2nc3c(=O)[nH]c(=O)nc-3n(C[C@H](O)[C@H](O)[C@H](O)COP(=O)(O)O)c2cc1C [Riboflavin sodium phosphate] | 100.1%
Cc1ncc(C[n+]2csc(CCO)c2C)c(N)n1 [Thiamine chloride hydrochloride] | 98.7%
CC1=C(C/C=C(\C)CCC[C@H](C)CCC[C@H](C)CCCC(C)C)C(=O)c2ccccc2C1=O [Phytonadione] | 101.5%
CC(=O)Oc1c(C)c(C)c2c(c1C)CCC(C)(CCC[C@H](C)CCC[C@H](C)CCCC(C)C)O2 (stereo partly drawn) [Tocopherol acetate] | 99.0%
NC(=O)c1cccnc1 [Nicotinamide] | 99.6%
Cyanocobalamin | 103.2%
C=C1CC[C@H](O)C/C1=C/C=C1\CCC[C@]2(C)[C@@H]([C@H](C)CCCC(C)C)CC[C@@H]12 [Cholecalciferol] | 100.5%
Cc1ncc(CO)c(CO)c1O.Cl [Pyridoxine hydrochloride] | 99.3%
O=C(O)CCCC[C@@H]1SC[C@@H]2NC(=O)N[C@@H]21 [Biotin] | 97.8%
CC(C)(CO)[C@@H](O)C(=O)NCCCO [Panthenol] | 100.4%
Nc1nc2ncc(CNc3ccc(C(=O)N[C@@H](CCC(=O)O)C(=O)O)cc3)nc2c(=O)[nH]1 [Folic acid] | 100.0%
O=C1O[C@H]([C@@H](O)CO)C(O)=C1O [Ascorbic acid] | 99.9%
